One assay concerns CD154 transcript. The assay is described as follows: RT-PCR of CD154 transcript in SLE T cells. Type of assay: cell-based, human. An excerpt:
Because SLE T cells are often activated (D. T. Y. Yu et al., J. Exp. Med. 151, 91 (1980).), the up-regulation of CD154 and IL-10 and down-regulation of IFN-γ may reflect skewed gene expression due to enhanced recruitment of HDACs to the promoters of these genes. The resulting disequilibrium of acetylation might be expected to alter the chromatin structure of the promoters (R. D. Komberg and Y. Lorch, Curr. Opin. Gen. Dev. 9, 148 (1999)), thereby activating previously silenced genes while repressing expressed genes. To determine if TSA can down-regulate CD154 transcript expression, T cells from eight SLE subjects were treated with increasing concentrations of TSA over 18 hr.
T cells were cultured in the absence or presence of increasing concentrations of TSA for 18 hr in 5% CO2 at 37° C. RNA was isolated, cDNAs were prepared, and RT-PCR was performed as previously detailed (D. Laxminarayana, et al., J. Clin. Invest. 92, 2207 (1993)). The primers used were: […]
The reaction mixtures were subjected to 30 cycles of denaturation (94° C., 1 min) and annealing for 1 min at 53° C. (CD154), […] (GAPDH) and 55° C. (IL-10 and IFN-γ). Extension was for 2 min at 72° C. with a final extension of 7 min at 72° C. using a DNA thermal cycler (Perkin-Elmer).
When SLE T cells were activated with phorbol myristate acetate (PMA) and ionomycin (IO), CD154 mRNA content increased 100%, peaked at 3 hr, and waned thereafter (FIGS. 1C and 1D).

The test system of assay [1] is acetylated H3 and H4 histones. The assay is described as follows: Western immunoblot of acetylated H3 and H4 histones in SLE PBMCs. Type of assay: cell-based, human. The note with it: 1000 ng/ml TSA or 20 μM SAHA, 18 hr. As for the experimental part: The effect of TSA and SAHA was examined to determine if HDIs induce accumulation of acetylated histones in SLE PBMCs on the level of histone acetylation in SLE PBMCs. Following culture of PBMCs in the presence of vehicle, 1000 ng/ml TSA or 20 μM SAHA for 18 hr, histones were isolated.

The test system of another assay is IL-6 protein. Kind of assay: IL-6 protein secretion by MRL/lpr splenocytes. It counts as cell-based, mouse. The note with it: splenocytes with LPS and IFN-γ 72 hr; stimulated control 34.4±7.6 pg/ml; p=0.002. Here is the method:
In determining whether TSA or SAHA down-regulate IL-6 mRNA content, splenocytes from 24-wk MRL/lpr mice were treated with increasing concentrations of TSA for 18 hr. […] TSA decreased IL-6 transcript at a concentration of 100 ng/ml and exerted maximal inhibition at 300 ng/ml. To address whether TSA and SAHA down-regulate LPS- and IFN-γ induced IL-6 transcript levels, splenocytes from younger MRL/lpr mice were treated in the absence or presence of TSA or SAHA for 18 hr before LPS and IFN-γ stimulation for 6 or 18 hr. […] Next, the effect of TSA and SAHA on IL-6 protein secretion in stimulated splenocytes was measured (FIG. 10D). When splenocytes were cultured with LPS and IFN-γ for 72 hr, there was a mean (±SEM) 34.4±7.6 pg/ml of IL-6 protein secretion.

In assay [2] the test system is acetylated H3 and H4 histones. The assay is described as follows: Immunoblot of acetylated H3 and H4 histones in MRL/lpr splenocytes. It counts as cell-based, mouse. The note with it: 18 hr exposure. An excerpt: One mechanism by which HDIs suppress transcription of cytokine genes in MRL/lpr splenocytes may be by increasing accumulation of acetylated histones which may result in chromatin remodeling. The accumulation of acetylated histones H3 and H4 in HDI-treated splenocytes was quantified to test this hypothesis. FIG. 12 is an immunoblot analysis of the acetylation levels of H3 and H4 histones.

Another assay deals with IFN-γ protein. The assay is described as follows: IFN-γ protein secretion by MRL/lpr splenocytes. Type of assay: cell-based, mouse. The note with it: Con A-stimulated splenocytes from younger MRL/lpr mice, 72 hr; p=0.004. An excerpt: The marked inhibition of IFN-γ transcript by these inhibitors prompted us to quantify IFN-γ protein secretion in splenocyte culture supernatants. Over 72 hr, Con A, but not LPS, stimulated splenocytes from younger MRL/lpr mice to secrete a mean (±SEM) 1,563.2±88.3 pg/ml of IFN-γ (FIG. 8D). […] Thus, inhibition of IFN-γ transcription by TSA and SAHA blocks secretion of IFN-γ protein by splenocytes.

The subject of the next assay is SP1 binding. Kind of assay: SP1 binding at TGF-β1 promoter. It counts as cell-based, human. The note with it: after treatment with TSA. An excerpt: Exposure of SLE PBMCs to TSA and SAHA yielded an eight-fold increase in TGF-β1 transcript and a 30% rise in the synthesis of TGF-β1 protein. This enhanced transcriptional activation was temporally associated with increased acetylation of both H3 and H4 nucleosomal histones. […] The increase in total acetylated histones was not global; neither GAPDH nor G6PD genes were transcriptionally activated. […] Thus, the capacity of HDIs to increase the endogenous synthesis of TGF-β1 raises the possibility that these inhibitors could be therapeutic candidates for the treatment of SLE, atherosclerosis, and osteoporosis in addition to cancers.

The next assay concerns IL-10 mRNA. Kind of assay: IL-10 mRNA in MRL/lpr splenocytes. Type of assay: cell-based, mouse. Here is the method: In investigating whether TSA down-regulates IL-10 mRNA, MRL/lpr splenocytes were treated with increasing concentrations of TSA. The heightened, constitutive expression of IL-10 mRNA confirms previous findings (FIGS. 11A & 11B, lane 1). […] To address whether TSA and SAHA down-regulate LPS- and IFN-γ induced IL-10 transcript, splenocytes from 10-wk old MRL/lpr mice were treated in the absence or presence of TSA or SAHA for 18 hr before LPS and IFN-γ stimulation for 6 or 18 hr.

Another assay has as its system mesangial cells. The assay is described as follows: Nitric oxide production by MRL/lpr mesangial cells. Type of assay: cell-based, mouse. The note with it: LPS 1 mg/ml, 24 hr. An excerpt: Excessive production of nitric oxide (NO) is crucial to the initiation and maintenance of glomerulonephritis in MRL/lpr mice. Pharmacologic inhibition of NO synthesis in MRL/lpr mice abrogates disease progression. In examining whether HDIs could suppress inducible nitric oxide synthetase (iNOS), splenocytes from 10 wk old mice were stimulated in the presence or absence of TSA or SAHA with LPS and IFN-γ for 24 hr. […] To determine whether HDIs could suppress nitric oxide secretion by mesangial cells, mesangial cells were stimulated with LPS ([…]) in the presence of vehicle or TSA for 24 hr. The supernatant from the cell culture was assayed for nitric oxide.

Consider one molecule from patent US7271198B2, “Method of treating autoimmune diseases” (Wake Forest University, priority 2000, dated 2007).

Turning to `CC(/C=C/C(=O)NO)=C\[C@@H](C)C(=O)c1ccc(N(C)C)cc1` [TSA, Trichostatin A], the “up-regulation of CD154 transcript on PMA+IO activation” value in the assay with CD154 transcript (SLE T cells preincubated with TSA 18 hr (1000 ng/ml), then PMA+IO to 24 hr, vs cells not exposed, P<0.001) was “significantly reduced”. Also, the “GAPDH mRNA expression” value in the assay on CD154 transcript (SLE T cells, increasing TSA) was “does not modify”. The “maximal inhibition of CD154 transcript” value with CD154 transcript (SLE T cells, increasing TSA (0–1000 ng/ml), 18 hr, relative to GAPDH) came out at 60%. Also, the results for the “accumulation of acetylated H3 and H4 histones” value in assay [1] and in assay [2] were “induced the accumulation” and “marked increase”, respectively. For the same molecule, the IL-6 protein secretion result in the assay on IL-6 protein was “no detectable IL-6 protein secretion”. In addition, the IFN-γ protein secretion entry in the assay with IFN-γ protein was “did not secrete detectable levels”. In addition, the “SP1 binding after localized acetylation of the TGF-β1 promoter” value in the assay on SP1 binding is “not associated with a concomitant increase”. Also, the “TSA dose that down-regulated IL-10 mRNA” value in the assay with IL-10 mRNA (MRL/lpr splenocytes, constitutive expression) was 300 ng/mL. Moreover, the “LPS- and IFN-γ induced IL-10 mRNA” value in the assay with IL-10 mRNA (splenocytes from 10-wk old MRL/lpr mice pretreated 18 hr, stimulated 6 or 18 hr) is recorded as “no detectable IL-10 mRNA”. Further, the “LPS-induced nitric oxide production” value in the assay with mesangial cells is listed as “able to suppress”.
